The text below walks through data of PubChem BioAssay AID686957 (The Scripps Research Institute Molecular Screening Center, 2013).

The test deals with T-cell receptor (TCR)-CD3 interaction, human (TCR alpha chain TRAV4). Kind of test: potency of TCR-CD3 interaction inhibitors, dose response, biochemical, fluorescence, TAMRA-labeled TCR probe (AID 686957). The following applies: TCR-CD3 binding.

pIC50: −log10 of the molar value. Activity calls are given as the source filed them. The rule behind the calls is not given here. Bounds are passed on as bounds.

On to `O=[N+]([O-])c1ccc(O)c(/C=N/NC(=S)Nc2ccc(Cl)cc2Cl)c1`, for which the IC50 is > 94.1 µM (inactive).
Same read-out and setting: to `Cc1ccc(C(=O)NNC(=O)c2cc3ccccc3cc2O)cc1` belongs > 94.1 µM (inactive); to `CCOc1ccc(Nc2ccc(N)c(S(=O)(=O)O)c2)cc1`, > 94.1 µM (inactive).
Regarding `CCOC(=O)Cn1c(=NC(=O)c2cc(-c3cccs3)nc3ccccc23)sc2cc(S(N)(=O)=O)ccc21`, the IC50 is > 94.1 µM (inactive).
Still for that read-out and setting: as for `COc1cc(/C=N/NC(=O)c2cc(O)cc(O)c2)ccc1OC(=O)c1ccccc1`, the figure is > 94.1 µM (inactive).
In the case of `O=c1c(O)cccc2cc(O)c(O)c(O)c12`, the pIC50 is 5.36.
As to `Cc1cc(C(=O)N/N=C/c2cc(Cl)cc([N+](=O)[O-])c2O)n[nH]1`, the IC50 was > 94.1 µM (inactive).
On the same count and under the same terms, as for `O=C(CP(=O)(c1ccccc1)c1ccccc1)N/N=C/c1cc(Br)cc(Br)c1O`, the figure is > 94.2 µM (inactive).
The same measure, in the same setting: as for `O=C(CCc1ccc(S(=O)(=O)N2CCOCC2)cc1)N/N=C/c1ccc(O)c(O)c1O`, the figure is > 94.1 µM (inactive); as for `O=C(N/N=C/c1cccc([N+](=O)[O-])c1O)c1cccs1`, > 94.1 µM (inactive).
On to `Cc1ccc(O)c(/C=N/NC(=O)COc2ccc3c(C)cc(=O)oc3c2)c1`, for which the IC50 was > 94.1 µM (inactive).
In the case of `O=c1c2ccccc2nc(COc2ccccc2)n1/N=C/c1cc([N+](=O)[O-])ccc1O`, the IC50 was > 94.1 µM (inactive).
`Cc1c(CC(=O)N2CCN(C(=O)C3COc4ccccc4O3)CC2)c(=O)oc2c(O)c(O)ccc12` (stereo not drawn): the pIC50 was 5.22.
With `CC/C(=N\NC(=O)c1ccccc1O)c1c(O)n(Cc2ccccc2)c(=O)[nH]c1=O`, the IC50 is > 94.1 µM (inactive).
The same measure, in the same setting: to `Cc1cc(C(=O)N/N=C/c2cc(Br)cc([N+](=O)[O-])c2O)c2ccccc2n1` belongs > 94.1 µM (inactive).
With `O=C(Cc1nnc(NC(=O)c2ccccc2)s1)N/N=C\c1ccc(O)c(O)c1`, the IC50 is > 94.1 µM (inactive).
Still for that read-out and setting: to `COc1cc(/C=N/NC(=O)COc2ccc(Cl)cc2)ccc1OS(=O)(=O)c1ccc(C)cc1` belongs “inactive”.
On the same count and under the same terms, to `O=c1cc(-c2ccc(O)cc2)oc2c(O)c(O)c(O)c(O)c12` belongs > 94.2 µM (inactive); to `C/C(=N\NC(=O)c1c(C)nc2ccccn12)c1ccc(O)cc1O`, > 94.1 µM (inactive); to `CCCCCC(=O)NC(=S)NC1C2CC3CC(C2)CC1C3` (stereo not drawn), > 94.1 µM (inactive).
On the same count and under the same terms, as for `O=C(N/N=C/c1cc([N+](=O)[O-])cc([N+](=O)[O-])c1O)/C(=C\c1cccs1)NC(=O)c1ccccc1`, the figure is > 94.1 µM (inactive); as for `C/C(=N\NC(=O)c1nnn(-c2nonc2N)c1CN(C)c1ccccc1)c1ccccc1O`, > 94.1 µM (inactive); as for `O=C1C(=Cc2cn(-c3ccccc3)nc2-c2ccc(OCc3ccccc3)cc2)SC(=S)N1CCS(=O)(=O)O`, > 94.2 µM (inactive).
Consider `NNC(=O)c1nc[nH]c1C(=O)Nc1ccccn1`, for which the IC50 was > 94.2 µM (inactive).
On the same count and under the same terms, as for `CCCCCCn1c(=O)c(C(=O)Nc2ncccc2O)c(O)c2ccccc21`, the figure is > 94.2 µM (inactive).
As to `COc1ccc2nc(C)cc(SCC(=O)N/N=C/c3ccc(O)c(O)c3)c2c1`, the IC50 is > 94.1 µM (inactive).
The same measure, in the same setting: as for `O=C(N/N=C/c1cc([N+](=O)[O-])ccc1O)c1cccc(N2CCCC2=O)c1`, the figure is > 94.1 µM (inactive); as for `CNC(=S)NNC(=O)c1oc2nc(-c3ccccc3)cc(-c3ccco3)c2c1N`, > 94.1 µM (inactive).
Same read-out and setting: to `Nc1ccc([N+](=O)[O-])cc1C(=O)NNC(=O)c1ccco1` belongs > 94.1 µM (inactive); to `O=C1COc2ccc(C(=O)COC(=O)/C=C/c3ccc(Br)o3)cc2N1`, > 94.1 µM (inactive).
Take `O=C(N/N=C/c1sc(=O)[nH]c1-[n+]1ccc2ccccc2c1)c1ccccc1[O-]`: the IC50 was > 94.1 µM (inactive).
Same read-out and setting: to `O=C(CNC(=O)c1ccccc1Br)N/N=C\c1cc([N+](=O)[O-])cc(Br)c1O` belongs > 94.1 µM (inactive); to `COc1ccc(C(=O)NC(=S)NNC(=O)c2ccc(O)cc2)cc1[N+](=O)[O-]`, > 94.1 µM (inactive); to `Nc1ncnc2oc(-c3ccco3)c(-c3ccco3)c12`, “inactive”.
Consider `Oc1ccc(C[C@H]2NCCc3cc(O)c(O)cc32)cc1O`, for which the IC50 was > 94.1 µM (inactive).
Still for that read-out and setting: to `O=[N+]([O-])c1cc(Br)c(O)c(/C=N/Nc2nnnn2-c2cccc3ccccc23)c1` belongs > 94.1 µM (inactive); to `COc1ccc(/C=N\NC(=O)c2cc(O)c(O)c(O)c2)cc1CN1CCN(c2ccc(F)cc2)CC1`, > 94.2 µM (inactive).
On the same count and under the same terms, as for `Cc1ccccc1C(=O)NNC(=S)NC(=O)c1cccnc1`, the figure is > 94.1 µM (inactive).
Same read-out and setting: to `O=C(NNC(=O)c1ccccc1O)c1ccccc1O` belongs > 93.9 µM (inactive); to `O=C(O)c1ccccc1/C=N/NC(=O)c1cc(-c2ccco2)nc2ccccc12`, > 94.1 µM (inactive); to `Cc1ccccc1C(=O)Nc1cccc(C(=O)N/N=C/c2cc(Cl)cc([N+](=O)[O-])c2O)c1`, > 94.1 µM (inactive).
As to `COCCNC(=O)Nc1ccc2nc(-c3ccco3)c(-c3ccco3)nc2c1`, the IC50 is > 94.1 µM (inactive).
Consider `Cc1ccc(/C=C2\SC(=S)N(CCCC(=O)NNC(=O)c3ccccc3O)C2=O)cc1`, for which the IC50 was > 94.1 µM (inactive).
On the same count and under the same terms, as for `CNC(=S)NNC(=O)c1cccn(Cc2ccccc2)c1=O`, the figure is > 94.2 µM (inactive); as for `Cc1ccn2cc(-c3ccc(O)c(O)c3)nc2c1`, > 94.1 µM (inactive).
Same read-out and setting: to `O=C(CCl)NNC(=O)c1c(O)c2ccccc2[nH]c1=O` belongs > 94 µM (inactive); to `Cc1ccc(-c2[nH]c3cc(C(=O)NCCCn4ccnc4)ccc3c(=O)c2O)cc1`, “inactive”; to `Cc1cc(C)c2c(N)c(C(=O)NN)sc2n1`, > 94.1 µM (inactive).
`CN=c1scc(C)n1/N=C/c1ccc(O)c(O)c1O`: the IC50 entry was “inactive”.
Consider `Oc1ccc(-c2cn3c(n2)SCC3)cc1O`, for which the IC50 result is “inactive”.
Regarding `Cc1nc2ccccc2n1CC(=O)c1ccc(O)c(O)c1`, the IC50 was > 94 µM (inactive).
Still for that read-out and setting: to `O=C(NC(=S)NNC(=O)c1cccs1)c1ccccc1` belongs > 94.1 µM (inactive); to `O=C(CN1C(=O)S/C(=C\c2ccccc2)C1=O)NNC(=O)c1ccccc1O`, > 94.1 µM (inactive); to `O=C(N/N=C/c1ccc(F)cc1)c1cc(-c2ccco2)nc2ccccc12`, > 94.1 µM (inactive).
On to `COc1ccc(C(=O)NNC(=S)NC(=O)c2ccc(Br)o2)cc1OC`, for which the IC50 was > 94.1 µM (inactive).
The same measure, in the same setting: as for `COc1ccc(NC(=O)NNC(=O)c2cc3ccccc3cc2O)cc1`, the figure is > 94.1 µM (inactive).
On the same count and under the same terms, as for `O=C(N/N=C/c1cc(Br)cc(Cl)c1O)c1ccc2c(c1)OCO2`, the figure is > 94.1 µM (inactive); as for `O=C(Cc1ccccc1)N/N=C/c1cc(Br)cc(Br)c1O`, > 94.1 µM (inactive).
In the case of `O=C(NNC(=O)c1ccc2ccccc2c1O)c1cccs1`, the IC50 was > 94.1 µM (inactive).
The same measure, in the same setting: to `O=C(N/N=C/c1cc(Cl)cc([N+](=O)[O-])c1O)c1ccc2c(c1)OCO2` belongs > 94.1 µM (inactive); to `CN(C)S(=O)(=O)c1cccc(NC(=O)COC(=O)c2cc(-c3cccc(Br)c3)nc3ccccc23)c1`, “inactive”.
Take `N#C/C(=C\c1ccc(O)c(O)c1)C(=O)Nc1cccc2ncccc12`: the pIC50 was 5.05.
Take `Cc1ccc(O)c(-c2cc(C(=O)Nc3ccc(S(=O)(=O)Nc4nccc(C)n4)cc3)[nH]n2)c1`: the IC50 was > 94.1 µM (inactive).
The same measure, in the same setting: to `NC(=O)CCC1NC(=S)N(Cc2ccccc2)C1=O` (stereo not drawn) belongs > 94.1 µM (inactive); to `CC1=NN(C(=O)c2ccccc2)C(O)(c2ccc(Br)cc2)C1` (stereo not drawn), > 94.2 µM (inactive).
The same measure, in the same setting: as for `Cc1c(C(=O)NNC(=O)c2ccccc2O)oc2ccccc12`, the figure is > 94 µM (inactive); as for `O=C(NNC(=O)c1ccc2ccccc2c1O)NC1CCCCC1`, > 94.1 µM (inactive).
In the case of `Cc1nc2ccccc2c(=O)n1/N=C/c1cc(Br)cc(Br)c1O`, the IC50 is > 94.1 µM (inactive).
As to `COc1ccc(C(=O)NNC(=S)NC(=O)c2cccnc2)cc1`, the IC50 was > 94.1 µM (inactive).
The same measure, in the same setting: as for `COc1cccc(/C=C2/SC(=S)N(CC(=O)NNC(=O)c3ccccc3O)C2=O)c1`, the figure is > 94.1 µM (inactive).
The same measure, in the same setting: as for `C/C(=N\NC(=O)c1nnn(-c2nonc2N)c1-c1ccccc1)c1ccccc1O`, the figure is > 94.1 µM (inactive); as for `Cc1cc(/C=N/n2c(COc3ccccc3C)nc3ccccc3c2=O)c(O)c([N+](=O)[O-])c1`, > 94.1 µM (inactive).
Still for that read-out and setting: to `O=C1NC(=S)NC1=Cc1ccco1` belongs > 94.1 µM (inactive); to `O=C(N/N=C/c1cc(Cl)cc([N+](=O)[O-])c1O)c1cccc(S(=O)(=O)N2CCOCC2)c1`, > 94.1 µM (inactive); to `O=C(NNC(=O)c1cc(Cl)ccc1O)c1cccc(S(=O)(=O)N2CCOCC2)c1`, > 94.1 µM (inactive).
As to `CC1CCN(S(=O)(=O)c2ccc(NC(=O)Cn3nnc(-c4ccccc4F)n3)cc2)CC1`, the IC50 entry is “inactive”.
Same read-out and setting: as for `Cc1ccc(S(=O)(=O)N2CCC(C(=O)NNC(=O)c3ccccc3O)CC2)cc1C`, the figure is > 94.1 µM (inactive).
The same measure, in the same setting: to `O=C(NNC(=S)NC(=O)c1cccnc1)c1ccc(F)cc1` belongs > 94.1 µM (inactive); to `CC(C)C(=O)Nc1ccc(C(=O)NNC(=S)NC(=O)c2ccccc2[N+](=O)[O-])cc1`, > 94.1 µM (inactive); to `C/C(=N\OCc1nc2ccccc2c(=O)n1/N=C/c1cc(C)cc([N+](=O)[O-])c1O)c1ccccc1`, > 94.1 µM (inactive).
Consider `COc1ccc(NC(=O)CSc2sc3c(O)cc(=O)[nH]c3c2C#N)c(OC)c1`, for which the IC50 is > 94.1 µM (inactive).
Still for that read-out and setting: as for `CCOC(=O)c1c(C)[nH]c(C(=O)N/N=C/c2cc([N+](=O)[O-])ccc2O)c1C`, the figure is > 94.1 µM (inactive); as for `Cc1ccc(/C=C2\SC(=S)N(CCC(=O)NNC(=O)c3ccccc3O)C2=O)cc1`, > 94.1 µM (inactive).

By IC50 is commonly meant the concentration that inhibits the measured activity by half. Broadly, the pIC50 is the IC50 on a negative log10 scale, so that one unit is a factor of ten.
